Legend:
[1] = target: Epidermal growth factor receptor (Homo sapiens, UniProt P00533); experiment: WT-EGFR Kinase Assay
Protocol: For the assay 50 nl of a 100 fold concentrated solution of the test compound in DMSO was pipetted into either a black low volume 384 well microtiter plate or a black 1536 well microtiter plate (both Greiner Bio-One, Frickenhausen, Germany), 2 μL of a solution of EGFR in aqueous assay buffer [50 mM Hepes pH 7.0, 10 mM MgCl2, 1 mM dithiothreitol, 0.5 mM EGTA, 0.3 mM activated sodium ortho-vanadate, 0.005% (w/v) bovine serum albumin, 0.005% (v/v) Tween-20] were added and the mixture was incubated for 15 min at 22° C. to allow pre-binding of the test compounds to the enzyme before the start of the kinase reaction. […] The concentration of EGFR was adjusted depending of the activity of the enzyme lot and was chosen appropriate to have the assay in the linear range, typical concentration was […]. The reaction was stopped by the addition of 3 μL of a solution of HTRF detection reagents (83.3 nM streptavidine-XL665 [Cisbio Bioassays, Codolet, France] and 1.67 nM PT66-Tb-Cryptate, a terbium-cryptate labelled anti-phospho-tyrosine antibody from Cisbio Bioassays [instead of the PT66-Tb-cryptate PT66-Eu-Chelate from Perkin Elmer can also be used]) in an aqueous EDTA-solution (133.3 mM EDTA, 0.2% (w/v) bovine serum albumin in 50 mM HEPES pH 7.5).

[2] = target: T1, Casein kinase I isoform alpha (Homo sapiens, UniProt P48729); experiment: CSNK1A1 High ATP Assay
Excerpt: Recombinant fusion protein of N-terminal Glutathion-S-Transferase (GST) and full-length human CSNK1A1, expressed by baculovirus infected insect cells and purified via Glutathion affinity chromatography, was purchased from Life Technologies (product no. PV4174) and used as enzyme. As substrate for the kinase reaction the biotinylated peptide biotin-Ahx-KRRRAL-pS-VASLPGL (C-terminus in amide form) was used which can be purchased e.g. from the company Biosyntan (Berlin-Buch, Germany).[2164]For the assay 50 nl of a 100 fold concentrated solution of the test compound in DMSO was pipetted into a white low volume 384-well microtiter plate (Greiner Bio-One, Frickenhausen, Germany), 2 μL of a solution of CSNK1A1 in aqueous assay buffer [50 mM HEPES pH 7.5, 10% (v/v) glycerol, 10 mM MgCl2, 50 mM NaCl, 1 mM dithiothreitol, 0.01% (w/v) bovine serum albumin, 0.01% (v/v) Triton X-100] were added and the mixture was incubated for 15 min at 22° C. to allow pre-binding of the test compounds to the enzyme before the start of the kinase reaction. […] The concentration of CSNK1A1 was adjusted depending of the activity of the enzyme lot and was chosen appropriate to have the assay in the linear range, a typical concentration is about 0.4 ng/μL. The reaction was stopped by the addition of 2.5 μL of ADP-Glo-reagent (1:1.5 fold diluted with water) and the resulting mixture was incubated at 22° C. for 1 h to convert the ATP not consumed in the kinase reaction completely […]. Subsequently 2.5 μL of the kinase detection reagent (1.2 fold more concentrated than recommended by the producer) were added, the resulting mixture was incubated at 22° C. for 1 h and then the luminescence measured with a suitable measurement instrument (e.g. Viewlux™ from Perkin-Elmer). The amount of emitted light was taken as a measure for the amount of ADP generated and thereby for the activity of the CSNK1A1.

[3] = target: Casein kinase I isoform delta (Homo sapiens, UniProt P48730); experiment: CSNK1D Assay
Protocol: As substrate for the kinase reaction the biotinylated peptide Btn-Ahx-[…] […] The concentration of CSNK1D was adjusted depending of the activity of the enzyme lot and was chosen appropriate to have the assay in the linear range, a typical concentration is about 0.5 ng/μL. The reaction was stopped by the addition of 2.5 μL of “ADP-Glo-reagent” (1:1.5 fold diluted with water) and the resulting mixture was incubated at 22° C. for 1 h to convert the ATP not consumed in the kinase reaction completely to […]. […] The amount of emitted light was taken as a measure for the amount of ADP generated and thereby for the activity of the CSNK1D.

[4] = target: T1, Casein kinase I isoform alpha; experiment: CSNK1A1 1uM ATP Assay
Protocol: The concentration of CSNK1A1 was adjusted depending of the activity of the enzyme lot and was chosen appropriate to have the assay in the linear range, a typical concentration is about 0.4 ng/μL. The reaction was stopped by the addition of 2.5 μL of ADP-Glo-reagent (1:1.5 fold diluted with water) and the resulting mixture was incubated at 22° C. for 1 h to convert the ATP not consumed in the kinase reaction completely to […]. […] The amount of emitted light was taken as a measure for the amount of ADP generated and thereby for the activity of the CSNK1A1.

Chain of Epidermal growth factor receptor (P00533 whole entry): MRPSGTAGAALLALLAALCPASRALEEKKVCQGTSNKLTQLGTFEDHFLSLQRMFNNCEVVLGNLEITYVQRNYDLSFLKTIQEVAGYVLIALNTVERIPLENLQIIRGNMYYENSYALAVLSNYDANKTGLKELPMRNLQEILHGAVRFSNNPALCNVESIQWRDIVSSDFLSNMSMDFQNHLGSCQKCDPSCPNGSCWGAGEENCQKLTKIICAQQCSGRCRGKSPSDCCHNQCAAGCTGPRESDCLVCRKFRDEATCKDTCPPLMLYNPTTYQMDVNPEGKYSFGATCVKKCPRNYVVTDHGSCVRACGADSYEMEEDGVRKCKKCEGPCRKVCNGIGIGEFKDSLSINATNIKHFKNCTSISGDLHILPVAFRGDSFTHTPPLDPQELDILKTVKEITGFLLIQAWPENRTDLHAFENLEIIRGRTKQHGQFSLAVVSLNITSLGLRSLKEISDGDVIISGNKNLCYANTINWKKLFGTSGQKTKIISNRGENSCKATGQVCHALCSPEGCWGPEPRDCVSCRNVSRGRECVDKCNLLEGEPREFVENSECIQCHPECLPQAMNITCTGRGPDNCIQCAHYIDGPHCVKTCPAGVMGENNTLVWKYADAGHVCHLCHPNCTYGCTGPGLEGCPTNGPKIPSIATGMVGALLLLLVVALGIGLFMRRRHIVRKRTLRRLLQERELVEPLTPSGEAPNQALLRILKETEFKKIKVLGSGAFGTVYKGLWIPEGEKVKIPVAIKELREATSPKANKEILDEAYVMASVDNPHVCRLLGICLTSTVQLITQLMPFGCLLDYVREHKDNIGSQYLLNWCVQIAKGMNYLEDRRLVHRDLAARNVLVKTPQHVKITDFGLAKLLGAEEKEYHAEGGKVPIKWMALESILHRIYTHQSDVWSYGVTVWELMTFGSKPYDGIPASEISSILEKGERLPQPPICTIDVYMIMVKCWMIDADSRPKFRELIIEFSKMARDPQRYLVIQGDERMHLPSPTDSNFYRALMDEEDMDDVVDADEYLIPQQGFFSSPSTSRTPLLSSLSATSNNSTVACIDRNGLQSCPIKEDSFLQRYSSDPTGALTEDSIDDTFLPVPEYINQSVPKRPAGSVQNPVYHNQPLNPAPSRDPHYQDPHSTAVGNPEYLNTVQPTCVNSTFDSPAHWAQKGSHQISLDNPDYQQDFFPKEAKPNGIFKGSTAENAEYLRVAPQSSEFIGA
T1 sequence (P48729 whole entry, the tested form may be a part, canonical isoform): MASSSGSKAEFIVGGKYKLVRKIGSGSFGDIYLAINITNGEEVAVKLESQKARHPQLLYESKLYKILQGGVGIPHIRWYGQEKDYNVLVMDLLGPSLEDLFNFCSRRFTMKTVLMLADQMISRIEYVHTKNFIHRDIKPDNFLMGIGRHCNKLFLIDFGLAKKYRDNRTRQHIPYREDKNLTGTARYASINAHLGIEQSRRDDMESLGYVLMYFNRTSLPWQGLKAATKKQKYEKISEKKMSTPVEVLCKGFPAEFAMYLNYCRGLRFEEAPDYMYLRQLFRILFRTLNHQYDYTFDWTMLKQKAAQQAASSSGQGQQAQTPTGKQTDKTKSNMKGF
Chain of Casein kinase I isoform delta (P48730 whole entry, canonical isoform): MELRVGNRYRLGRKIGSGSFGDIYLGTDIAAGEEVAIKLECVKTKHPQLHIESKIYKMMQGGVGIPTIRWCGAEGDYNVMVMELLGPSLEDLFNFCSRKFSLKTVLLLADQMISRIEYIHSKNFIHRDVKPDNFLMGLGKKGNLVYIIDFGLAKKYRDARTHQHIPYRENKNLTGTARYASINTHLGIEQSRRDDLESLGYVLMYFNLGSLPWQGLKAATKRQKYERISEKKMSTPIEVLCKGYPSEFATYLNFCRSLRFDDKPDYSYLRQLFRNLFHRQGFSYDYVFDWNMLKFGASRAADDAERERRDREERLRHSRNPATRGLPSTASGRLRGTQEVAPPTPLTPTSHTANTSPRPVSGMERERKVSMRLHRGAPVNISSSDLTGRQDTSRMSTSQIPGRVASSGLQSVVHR

| Compound | IC50 [1] [µM] | IC50 [2] [µM] | IC50 [3] [µM] | IC50 [4] [µM] |
| --- | --- | --- | --- | --- |
| O=c1[nH]ccc2[nH]c(-c3ccncc3F)c(Nc3ccccc3)c12 [US20230322767, Example No. 16 WO 2016/120196] | 0.303 | 0.0403 |  |  |
| Cn1ccc2[nH]c(-c3ccnc(NC(=O)Cc4ccc(F)cc4)c3)c(-c3ccccc3)c2c1=O [US20230322767, Example 5] | > 20 |  | 0.0025 | 0.00086 |
| CN1CCc2[nH]c(-c3ccnc(NC(=O)[C@H]4C[C@H]4F)c3)c(Nc3ccccc3)c2C1=O (relative stereo; form 1) [US20230322767, Example No. 40 WO 2016/120196] | 0.0855 | 0.0241 |  |  |
| CN1CCc2[nH]c(-c3ccnc(NC(=O)[C@H]4C[C@H]4F)c3)c(Nc3ccccc3)c2C1=O (relative stereo; form 2) [US20230322767, Example No. 25 WO 2016/120196] | 0.321 | 0.0625 |  |  |
| CN1CCc2[nH]c(-c3ccnc(NC(=O)C4CC4)c3)c(Nc3ccccc3)c2C1=O | 0.0426 | < 0.00343 |  |  |

From BindingDB's records for patent US20230322767 (Bayer Aktiengesellschaft, 2023)
